# Source: PMC4129416, “YLT192, a Novel, Orally Active Bioavailable Inhibitor of VEGFR2 Signaling with Potent Antiangiogenic Activity and Antitumor Efficacy in Preclinical Models” (Scientific Reports, 2014)
# What was measured:
# HUVEC = assay: VEGF165-stimulated HUVEC growth, MTT assay; format: cell-based; conditions: Homo sapiens, induced by VEGF165 (50 ng/mL), read-out: IC50, HUVEC proliferation
# Text: The inhibition effect of YLT192 on VEGF165-stimulated HUVEC growth was examined using MTT assay.
# [1] = system: alginate beads containing CT26 tumor cells; assay: Alginate-encapsulated tumor cell assay; format: in vivo, mice; conditions: 100 mg/kg oral once daily, 14 days, vs vehicle
# Experimental: Figure 3 YLT192 inhibited angiogenesis in vivo. (A) Fluorescent images of 30 hpf zebrafish treated with vehicle or concentrations of YLT192. ISV growth was inhibited by YLT192. One representative experiment of three is shown. Data are means ± SEM (n = 10 per group), *P < 0.05, **P < 0.01. Scale bars represent 100 μm. […] Frozen sections of HCT116 tumors were tested by immunohistochemistry analysis with anti-CD31 antibody. Representative images of the tumor vasculature from vehicle and YLT192 treated mice were shown. The fields were averaged in each tumor, and the averages for each animal were used to give the final mean ± SD (n = 6 mice per group). *P < 0.05, **P < 0.01. Scale bars represent 100 μm. […] Alginate beads containing 5 × 10^4 CT26 cells were implanted s.c. into the backs of mice. Mice were then orally treated with YLT192 or vehicle once daily. Beads were surgically removed 14 days later and FITC-dextran was quantified. […] Data are means ± SD (n = 6 mice per group), *P < 0.05, **P < 0.01. Scale bars represent 500 μm.
# To determine whether YLT192 could inhibit angiogenesis induced by tumor cells in vivo, we did the alginate-encapsulated tumor cell assay as described previously. […] The content of FITC-dextran in the beads was quantified as described previously.
# HCT116 tumors = assay: Subcutaneous xenograft model; format: in vivo; conditions: 100 mg/kg oral once daily; HCT116 xenograft in nude mice; vs vehicle
# Experimental: (§1) Figure 5 Anti-tumor activities of YLT192 in vivo. (A) U251 and HCT116 tumor-bearing mice were treated orally with YLT192 at 25, 50 and 100 mg/kg or vehicle daily, respectively. […] (B) Body weight changes in YLT192 and vehicle treated mice. […] For A and B, data are means ± SD. (C) and (D), YLT192 inhibited tumor cell proliferation in HCT116 tumor tissues in vivo. Mice bearing HCT116 tumor xenograft were treated with YLT192 at 50 and 100 mg/kg or vehicle and sacrificed at the end of the experiment. The tumor tissues were removed for further immunohistochemistry analysis using anti-Ki67 (C) and anti-p-p44/42 MAPK antibodies (D). (E) YLT192 induced tumor cell apoptosis in HCT116 tumor in vivo. Apoptosis was measured by TUNEL staining (n = 6 mice per group). Scale bars represent 100 μm.
# (§2) All animal experiments were approved and conducted by the Institutional Animal Care and Treatment Committee of Sichuan University in China (Permit Number: 20121205). […] Tumor growth and body weight was measured every three days during the treatment. Tumor volumes were calculated using the formula as follow: volume (mm^3) = 0.5 × length (mm) × width (mm)^2. Growth inhibition was calculated from the start of treatment by comparison of the mean change in tumor volume for vehicle and treated group as before.
# U251 tumors = assay: Subcutaneous xenograft model; format: in vivo; conditions: 100 mg/kg oral once daily; U251 xenograft in nude mice; vs vehicle
# Experimental: as §1, §2
# [2] = Body weight of tumor-bearing mice during treatment; format: in vivo; conditions: U251 and HCT116 tumor-bearing mice; 25, 50 and 100 mg/kg oral daily
# Experimental: as §1, §2
smiles,measurement,setting,value
CNC(=O)c1cc(Oc2ccc(NC(=O)c3cccc(OC)c3)cc2)ccn1 [YLT192],IC50,HUVEC,2300 nM
same,reduction of accumulation of FITC-dextran,[1],66%
same,tumor volume inhibition,HCT116 tumors,61%
same,tumor volume inhibition,U251 tumors,60%
same,body weight vs vehicle group,[2],no significant difference
